Test results published in the supplement of paper PMC11451515.

Legend:
Conditions in all cases: 48 h
NOMO1 [1] = assay: cell viability relative to DMSO control; higher = less cytotoxic
Outline: (§1)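 Viability is a per-plate percentage relative to DMSO wells, with cell-free wells as background. CellTiter-Glo One luminescence was read after 48 h at 37°C on 1536-well plates (5 μl) of NOMO1 or SEM (500 cells/well) or P12-Ichikawa (1000 cells/well) leukemia cells. The cells had been adapted for at least four passages in each medium and pin-dosed with library compounds in DMSO from 47 μM to 0.79 nM in 11 threefold steps.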

P12-Ichikawa [2] = assay: as above
Outline: as §1

SEM cells [3] = assay: as above
Outline: as §1

NOMO1 [4] = assay: AUC of viability dose-response curve (% viability x log10 dose units); higher = less sensitive
Outline: (§2)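 Seeding of medium-adapted leukemia cells was at 500 or 1000 cells/well in 1536-well plates, followed by 48 h at 37°C with library compounds in DMSO at 11 threefold doses from 47 μM to 0.79 nM. CellTiter-Glo One luminescence was normalised per plate to DMSO and cell-free wells and fitted as a four-parameter log-logistic function of log10 dose. Area under the curve was integrated by trapezoidal rule, with curves exceeding full viability scaled and curves failing quality control removed.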

P12-Ichikawa [5] = assay: as above
Outline: as §2

SEM cells [6] = assay: as above
Outline: as §2

COc1cc2c(Nc3ccc(Cl)c(Cl)c3F)ncnc2cc1OC[C@@H]1C[C@@H]2CN(C)C[C@@H]2C1
cell viability [%]
Conditions	NOMO1 [1]	P12-Ichikawa [2]	SEM cells [3]
HPLM + 10% dialyzed FBS, 0.000781 µM	97.3	95.2	88.5
HPLM + 10% dialyzed FBS, 0.00234 µM	99	102	78.5
HPLM + 10% dialyzed FBS, 0.00702 µM	106	108	86.2
HPLM + 10% dialyzed FBS, 0.0211 µM	104	112	91.6
HPLM + 10% dialyzed FBS, 0.0632 µM	128	100	94.5
HPLM + 10% dialyzed FBS, 0.19 µM	127	110	94.5
HPLM + 10% dialyzed FBS, 0.569 µM	93.3	104	94.4
HPLM + 10% dialyzed FBS, 1.71 µM	101	104	91.5
HPLM + 10% dialyzed FBS, 5.12 µM	96.6	108	87.8
HPLM + 10% dialyzed FBS, 15.4 µM	45.6	81.8	40
HPLM + 10% dialyzed FBS, 46.1 µM	6.66	5.15	3.92
RPMI 5 mM glucose + 10% FBS, 0.000781 µM	93.7	95.3	–
RPMI 5 mM glucose + 10% FBS, 0.00234 µM	104	102	–
RPMI 5 mM glucose + 10% FBS, 0.00702 µM	115	98	–
RPMI 5 mM glucose + 10% FBS, 0.0211 µM	106	105	–
RPMI 5 mM glucose + 10% FBS, 0.0632 µM	103	109	–
RPMI 5 mM glucose + 10% FBS, 0.19 µM	115	112	–
RPMI 5 mM glucose + 10% FBS, 0.569 µM	110	114	–
RPMI 5 mM glucose + 10% FBS, 1.71 µM	109	110	–
RPMI 5 mM glucose + 10% FBS, 5.12 µM	111	119	–
RPMI 5 mM glucose + 10% FBS, 15.4 µM	97.8	106	–
RPMI 5 mM glucose + 10% FBS, 46.1 µM	6.22	5.73	–
RPMI 5 mM glucose + 10% dialyzed FBS, 0.000781 µM	93.4	108	88.8
RPMI 5 mM glucose + 10% dialyzed FBS, 0.00234 µM	116	114	91.6
RPMI 5 mM glucose + 10% dialyzed FBS, 0.00702 µM	111	108	110
RPMI 5 mM glucose + 10% dialyzed FBS, 0.0211 µM	112	113	103
RPMI 5 mM glucose + 10% dialyzed FBS, 0.0632 µM	112	117	121
RPMI 5 mM glucose + 10% dialyzed FBS, 0.19 µM	104	117	91.1
RPMI 5 mM glucose + 10% dialyzed FBS, 0.569 µM	107	115	103
RPMI 5 mM glucose + 10% dialyzed FBS, 1.71 µM	105	111	95.5
RPMI 5 mM glucose + 10% dialyzed FBS, 5.12 µM	111	113	93.7
RPMI 5 mM glucose + 10% dialyzed FBS, 15.4 µM	92.1	89.6	74.7
RPMI 5 mM glucose + 10% dialyzed FBS, 46.1 µM	4.94	4.74	3.96

AUC of viability dose-response curve
Conditions	NOMO1 [4]	P12-Ichikawa [5]	SEM cells [6]
HPLM + 10% dialyzed FBS	421	444	384
RPMI 5 mM glucose + 10% FBS	450	453	443
RPMI 5 mM glucose + 10% dialyzed FBS	447	444	438

CO[C@@H]1[C@@H](O)[C@H](O)[C@@H](n2c3c(Cl)cccc3c3c4c(c5c6cccc(Cl)c6[nH]c5c32)C(=O)NC4=O)O[C@H]1CO
cell viability [%]
Conditions	NOMO1 [1]	P12-Ichikawa [2]	SEM cells [3]
HPLM + 10% dialyzed FBS, 0.000781 µM	103	109	99.7
HPLM + 10% dialyzed FBS, 0.00234 µM	116	100	90.8
HPLM + 10% dialyzed FBS, 0.00702 µM	106	108	105
HPLM + 10% dialyzed FBS, 0.0211 µM	103	106	112
HPLM + 10% dialyzed FBS, 0.0632 µM	105	100	96.9
HPLM + 10% dialyzed FBS, 0.19 µM	107	81.9	81.2
HPLM + 10% dialyzed FBS, 0.569 µM	89.6	14.3	54.5
HPLM + 10% dialyzed FBS, 1.71 µM	21.6	5.78	13.8
HPLM + 10% dialyzed FBS, 5.12 µM	30.5	7.57	9.51
HPLM + 10% dialyzed FBS, 15.4 µM	25.7	4.61	5.16
HPLM + 10% dialyzed FBS, 46.1 µM	18.3	3.32	5.04
RPMI 5 mM glucose + 10% FBS, 0.000781 µM	93.3	101	137
RPMI 5 mM glucose + 10% FBS, 0.00234 µM	91.3	104	118
RPMI 5 mM glucose + 10% FBS, 0.00702 µM	106	103	113
RPMI 5 mM glucose + 10% FBS, 0.0211 µM	105	103	112
RPMI 5 mM glucose + 10% FBS, 0.0632 µM	86.7	94.9	108
RPMI 5 mM glucose + 10% FBS, 0.19 µM	86.4	71	70.1
RPMI 5 mM glucose + 10% FBS, 0.569 µM	91.7	8.36	28.1
RPMI 5 mM glucose + 10% FBS, 1.71 µM	16.7	6.11	11.5
RPMI 5 mM glucose + 10% FBS, 5.12 µM	20.3	4.86	6.56
RPMI 5 mM glucose + 10% FBS, 15.4 µM	19.3	3.72	4.38
RPMI 5 mM glucose + 10% FBS, 46.1 µM	16.4	3.9	4.8
RPMI 5 mM glucose + 10% dialyzed FBS, 0.000781 µM	84.7	97.7	99.2
RPMI 5 mM glucose + 10% dialyzed FBS, 0.00234 µM	103	91.4	113
RPMI 5 mM glucose + 10% dialyzed FBS, 0.00702 µM	89.9	96.1	95.1
RPMI 5 mM glucose + 10% dialyzed FBS, 0.0211 µM	98.5	94.7	100
RPMI 5 mM glucose + 10% dialyzed FBS, 0.0632 µM	90.8	85.7	92.4
RPMI 5 mM glucose + 10% dialyzed FBS, 0.19 µM	99.9	68.4	82.9
RPMI 5 mM glucose + 10% dialyzed FBS, 0.569 µM	87.2	14	43.1
RPMI 5 mM glucose + 10% dialyzed FBS, 1.71 µM	20.7	7.72	11
RPMI 5 mM glucose + 10% dialyzed FBS, 5.12 µM	21.3	8.77	7.94
RPMI 5 mM glucose + 10% dialyzed FBS, 15.4 µM	22.6	6.63	4.29
RPMI 5 mM glucose + 10% dialyzed FBS, 46.1 µM	19.7	4.8	3.62

AUC of viability dose-response curve
Conditions	NOMO1 [4]	P12-Ichikawa [5]	SEM cells [6]
HPLM + 10% dialyzed FBS	340	266	292
RPMI 5 mM glucose + 10% FBS	323	259	254
RPMI 5 mM glucose + 10% dialyzed FBS	325	251	283
